We go through one compound from US7993916B2, “Methods for increasing definitive endoderm production” (Viacyte, Inc., priority 2007, dated 2011).

SMILES strings stand for the structures.

This assay deals with hESCs (CyT203 p36). The conditions noted are these: EDTA 0.075 mM, PBS−/− wash, about 18 hr, activin A 100 ng/ml and Wnt3a 25 ng/ml, RPMI without FBS. The method, then:
Cell cultures and culture conditions were substantially similar to that described above and in D'Amour et al. 2005 and 2006 supra. […] Samples of undifferentiated hESCs were taken prior to the start of the differentiation procedure. Plates were briefly washed with 2 ml of PBS either containing Ca^2+ or Mg^2+ or without Ca^2+ and Mg^2+ (PBS^−/−). In addition, the one plate which was washed with PBS^−/− also received ethylenediamine tetraacetic acid (EDTA) at 0.075 mM to reduce the concentration of Ca^2+ ions present in the media.

Turning to `O=C(O)CN(CCN(CC(=O)O)CC(=O)O)CC(=O)O` [EDTA, ethylenediamine tetraacetic acid], the “increase in expression for the DE marker (CER)” value is listed as “three-fold” and the “increase in gene expression for mesendoderm markers (BRACH, NODAL)” value is “two-fold”.
